From patent US6159940A, “Method for modulating hemopoiesis” (Immunotech Developments Inc., priority 1999, dated 2000)

Tests used:
nucleated blood cells = experiment: Karyocyte and lymphocyte counts in blood of irradiated mice (4 Gy), scheme 2; type: in vivo
Method: Irradiated mice (4 Gy) received intramuscular injections of the peptide in the dose of 10 μg/kg according to 2 schemes.
b) According to scheme 2, the peptide injections were made starting from the 3rd day after the irradiation, at the same time of maximum depletion of the pool of mature nucleated cells and the bone marrow. The groups of mice were formed in the same way as in the previous scheme. […] Tables 9 and 10 present the data on karyocyte and lymphocyte counts in blood (per 1 mm^3) of mice treated according to scheme 2.

hemoglobin, erythrocytes = experiment: Erythropoiesis in irradiated mice (4 Gy); type: in vivo; conditions: for Hemoglobin Content in blood: 4 Gy
Text: The effect of the peptide on erythropoiesis in irradiated mice (4 Gy) was also studied. The mice were irradiated and treated with the peptide as in Example 7.

CFU-S-8 and CFU-S-12 = experiment: Cytostatic (Cytosine-Arabinoside)-induced cytopenia: karyocytes, CFU-S-8, CFU-S-12 in bone marrow; type: in vivo, mice; conditions: donor bone marrow; CA 20 mg/kg i.p. once; N 10 μg/kg once daily, three injections
Method: Used as a cytostatic, Cytosine-Arabinoside (CA) was intraperitoneally injected to donor mice once in the dose of 20 mg/kg. The peptide was given according to the following scheme: 10 μg/kg once daily, three injections starting from the first hour after CA. Intact mice received H-Ile-Glu-Trp-OH in the same doses and according to the same schedule. On day 8 after the cytostatic injection, determined were karyocyte count in the donor bone marrow and the content of hemopoietic progenitors of different polipotencies: committed CFU-S-8 and CFU-S-12. CFU-8 are committed stem cells which later undergo differentiation. CFU-12 are the polypotent cells, from which stem cells can be recruited (i.e. they maintain the pool of stem cells). This is a slowly proliferating cell population, mainly in G phase. That is why it is important to evaluate the effect of a preparation on the pools of both committed (CFU-8) and polypotent (CFU- 12) cells. To this end, bone marrow was extracted from donor's femoral bones and injected to lethally irradiated recipients. After the cell injections, every test group was divided into 2 subgroups: some animals were killed on day 8, the other on day 12. Spleens were taken out and the colonies were counted. The tests were carried out on 105 mice.

tumor cells EL-4 = experiment: Thymoma EL-4 cells incubated with peptide and heated, transplanted to mice: tumor size; type: in vivo, C57B1 mice; conditions: for Tumor size: EL-4, 13th day
Method: Incubation of the tumor cells with the tested drugs were performed the same way as described above in the experiments with OU. After 18-hour incubation, the cells were washed in the medium RPMI, and then resuspended in the concentration of 5 ml/1 ml in plastic test tubes of total volume of 2 ml each. Then the cells were heated for 1 hour at 43 degrees Celsius, and transplanted under the back skin of the mice C57B1. The growth of the tumor was examined the same way as described above.

[1] = tested on: mixed lymphocyte culture (H-2d anti H-2b); experiment: Proliferation of mixed lymphocyte culture (MLC), 3H-thymidine; type: cell-based
Method: This experimental system is an in vitro the analog of the Graft Versus Host Disease reaction.
In the present series of experiments the reaction H-2d, anti H-2b was examined. The new combination responder-stimulator. Each variant was made in a triplet. Microcultures were incubated for 4 days, then 3H-thymidine was added; then the mixture was incubated for 16 more hours, and after its transfer to the filters, the amount of 3H-thymidine was determined. H-Ile-Glu-Trp-OH was added at the beginning of the incubation in different concentrations.

[2] = Observation during study of specific and general pharmacological activity; type: in vivo, mice, guinea pigs, rats, rabbits; conditions: during the study and 1-6 month observation period
Method: In the study of specific and general pharmacological activity, the test animals were mice, guinea pigs, rats, rabbits. Some tests were performed using lymphocyte or monocyte cultures of the peritheric blood of donors and patients with different diseases accompanied by immunity disorders.

## H-Ile-Glu-Trp-OH
Nucleated blood cells; scheme 2, 1 Time, Day 7
  Karyocyte Count in Blood: 1.64 ± 0.2 × 10^3
  Lymphocyte in Blood (Absolute): 232
  Lymphocyte in Blood, %: 45.1 ± 3.9%
Nucleated blood cells; scheme 2, 1 Time, Day 11
  Karyocyte Count in Blood: 1.88 ± 0.3 × 10^3
  Lymphocyte in Blood (Absolute): 1365
  Lymphocyte in Blood, %: 49.2 ± 3.8%
Nucleated blood cells; scheme 2, 1 Time, Day 14
  Karyocyte Count in Blood: 1.50 ± 0.2 × 10^3
  Lymphocyte in Blood (Absolute): 1118
  Lymphocyte in Blood, %: 43.3 ± 3.2%
Nucleated blood cells; scheme 2, 1 Time, Day 18
  Karyocyte Count in Blood: 2.62 ± 0.2 × 10^3
  Lymphocyte in Blood (Absolute): 2412
  Lymphocyte in Blood, %: 30.6 ± 2.9%
Nucleated blood cells; scheme 2, 1 Time, Day 21
  Karyocyte Count in Blood: 1.63 ± 0.2 × 10^3
  Lymphocyte in Blood (Absolute): 743
  Lymphocyte in Blood, %: 45.6 ± 3.9%
Nucleated blood cells; scheme 2, 2 Times, Day 7
  Karyocyte Count in Blood: 1.33 ± 0.2 × 10^3
  Lymphocyte in Blood (Absolute): 701
  Lymphocyte in Blood, %: 52.7 ± 2.9%
Nucleated blood cells; scheme 2, 2 Times, Day 11
  Karyocyte Count in Blood: 2.03 ± 0.3 × 10^3
  Lymphocyte in Blood (Absolute): 915
  Lymphocyte in Blood, %: 45.1 ± 5.4%
Nucleated blood cells; scheme 2, 2 Times, Day 14
  Karyocyte Count in Blood: 1.60 ± 0.2 × 10^3
  Lymphocyte in Blood (Absolute): 619
  Lymphocyte in Blood, %: 38.8 ± 2.2%
Nucleated blood cells; scheme 2, 2 Times, Day 18
  Karyocyte Count in Blood: 1.67 ± 0.1 × 10^3
  Lymphocyte in Blood (Absolute): 703
  Lymphocyte in Blood, %: 42.1 ± 1.4%
Nucleated blood cells; scheme 2, 2 Times, Day 21
  Karyocyte Count in Blood: 2.70 ± 0.2 × 10^3
  Lymphocyte in Blood (Absolute): 1220
  Lymphocyte in Blood, %: 45.2 ± 2.3%
Nucleated blood cells; scheme 2, 3 Times, Day 7
  Karyocyte Count in Blood: 2.22 ± 0.3 × 10^3
  Lymphocyte in Blood (Absolute): 968
  Lymphocyte in Blood, %: 43.6 ± 2.1%
Nucleated blood cells; scheme 2, 3 Times, Day 11
  Karyocyte Count in Blood: 1.94 ± 0.2 × 10^3
  Lymphocyte in Blood (Absolute): 892
  Lymphocyte in Blood, %: 46.3 ± 5.4%
Nucleated blood cells; scheme 2, 3 Times, Day 14
  Karyocyte Count in Blood: 1.50 ± 0.2 × 10^3
  Lymphocyte in Blood (Absolute): 744
  Lymphocyte in Blood, %: 47.7 ± 6.1%
Nucleated blood cells; scheme 2, 3 Times, Day 18
  Karyocyte Count in Blood: 2.07 ± 0.2 × 10^3
  Lymphocyte in Blood (Absolute): 7353
  Lymphocyte in Blood, %: 35.5 ± 1.4%
Nucleated blood cells; scheme 2, 3 Times, Day 21
  Karyocyte Count in Blood: 2.45 ± 0.4 × 10^3
  Lymphocyte in Blood (Absolute): 1289
  Lymphocyte in Blood, %: 52.5 ± 3.2%
Nucleated blood cells; scheme 2, 4 Times, Day 7
  Karyocyte Count in Blood: 2.71 ± 0.4 × 10^3
  Lymphocyte in Blood (Absolute): 1231
  Lymphocyte in Blood, %: 45.6 ± 2.5%
Nucleated blood cells; scheme 2, 4 Times, Day 11
  Karyocyte Count in Blood: 3.03 ± 0.5 × 10^3
  Lymphocyte in Blood (Absolute): 1406
  Lymphocyte in Blood, %: 42.6 ± 3.6%
Nucleated blood cells; scheme 2, 4 Times, Day 14
  Karyocyte Count in Blood: 1.17 ± 0.1 × 10^3
  Lymphocyte in Blood (Absolute): 515
  Lymphocyte in Blood, %: 44.0 ± 3.1%
Nucleated blood cells; scheme 2, 4 Times, Day 18
  Karyocyte Count in Blood: 2.48 ± 0.1 × 10^3
  Lymphocyte in Blood (Absolute): 1116
  Lymphocyte in Blood, %: 45.1 ± 1.8%
Nucleated blood cells; scheme 2, 4 Times, Day 21
  Karyocyte Count in Blood: 1.66 ± 0.2 × 10^3
  Lymphocyte in Blood (Absolute): 789
  Lymphocyte in Blood, %: 47.5 ± 5.3%
hemoglobin, erythrocytes; 4 Gy mice
  Erythrocyte counts, test versus control groups: did not differ
hemoglobin, erythrocytes; 4 Gy treated mice (control: by day 14)
  restoration of hemoglobin level: become normal by the 11th day
hemoglobin, erythrocytes; scheme 2, 1 Time, Day 7
  Hemoglobin Content in blood: 9.4 ± 0.8 r/dl
hemoglobin, erythrocytes; scheme 2, 1 Time, Day 11
  Hemoglobin Content in blood: 12.6 ± 0.1 r/dl
hemoglobin, erythrocytes; scheme 2, 1 Time, Day 14
  Hemoglobin Content in blood: 11.8 ± 0.5 r/dl
hemoglobin, erythrocytes; scheme 2, 1 Time, Day 18
  Hemoglobin Content in blood: 12.1 ± 0.1 r/dl
hemoglobin, erythrocytes; scheme 2, 1 Time, Day 21
  Hemoglobin Content in blood: 12.1 ± 0.4 r/dl
hemoglobin, erythrocytes; scheme 2, 2 Times, Day 7
  Hemoglobin Content in blood: 9.6 ± 0.4 r/dl
hemoglobin, erythrocytes; scheme 2, 2 Times, Day 11
  Hemoglobin Content in blood: 12.0 ± 0.1 r/dl
hemoglobin, erythrocytes; scheme 2, 2 Times, Day 14
  Hemoglobin Content in blood: 10.8 ± 0.8 r/dl
hemoglobin, erythrocytes; scheme 2, 2 Times, Day 18
  Hemoglobin Content in blood: 11.5 ± 0.6 r/dl
hemoglobin, erythrocytes; scheme 2, 2 Times, Day 21
  Hemoglobin Content in blood: 11.7 ± 0.6 r/dl
hemoglobin, erythrocytes; scheme 2, 3 Times, Day 7
  Hemoglobin Content in blood: 10.15 ± 0.8 r/dl
hemoglobin, erythrocytes; scheme 2, 3 Times, Day 11
  Hemoglobin Content in blood: 11.9 ± 0.4 r/dl
hemoglobin, erythrocytes; scheme 2, 3 Times, Day 14
  Hemoglobin Content in blood: 12.1 ± 0.2 r/dl
hemoglobin, erythrocytes; scheme 2, 3 Times, Day 18
  Hemoglobin Content in blood: 11.7 ± 0.2 r/dl
hemoglobin, erythrocytes; scheme 2, 3 Times, Day 21
  Hemoglobin Content in blood: 11.9 ± 0.3 r/dl
hemoglobin, erythrocytes; scheme 2, 4 Times, Day 7
  Hemoglobin Content in blood: 14.4 ± 0.9 r/dl
hemoglobin, erythrocytes; scheme 2, 4 Times, Day 11
  Hemoglobin Content in blood: 12.2 ± 0.1 r/dl
hemoglobin, erythrocytes; scheme 2, 4 Times, Day 14
  Hemoglobin Content in blood: 12.0 ± 0.2 r/dl
hemoglobin, erythrocytes; scheme 2, 4 Times, Day 18
  Hemoglobin Content in blood: 11.7 ± 0.4 r/dl
hemoglobin, erythrocytes; scheme 2, 4 Times, Day 21
  Hemoglobin Content in blood: 12.0 ± 0.6 r/dl
CFU-S-8 and CFU-S-12
  Day 8 COUNT CFU-S-8: 2805 ± 232
  Day 8 COUNT CFU-S-12: 2930 ± 152
  Day 8 COUNT Karyocytes: 23.0 ± 0.9 × 10^6
Tumor cells EL-4; + Heating (1 hour at 43 degrees Celsius)
  Tumor size: No Tumor
Tumor cells EL-4; no heating
  Tumor size: 188.7 mm squared
Tumor cells EL-4; in vitro treatment followed by heating, 21st day
  tumor formation: no tumor formation was observed
[1]; 0.1 μg/ml (FIG. 4)
  proliferation of the allogenic lymphocytes: negligible inhibition of the proliferation
[1]; 1, 10, and 20 μg/ml (FIG. 4)
  proliferation of the allogenic lymphocytes: stimulation of proliferation
[2]
  toxic or allergic reactions: no toxic or allergic reactions were observed
